Earlier results in patent publication US12311052B2, “Mitochondrial performance enhancement nanoemulsion method” (Quicksilver Scientific, Inc., priority 2017, dated 2025).
Where two headings read alike, the source gives them in different places.

What was measured:
[1] = consumed orally
mice = settings: PQQ deficient mice compared to PQQ supplemented mice
cells = settings: inhibitors rotenone, 3-nitropropionic acid, antimycin A, sodium azide
Hepa1-6 mouse cells = settings: 10-30 μM PQQ for 24-48 hours
[2] = oral administration; extensively metabolized to glucuronide conjugate by liver and intestine

SMILES: COC1=C(OC)C(=O)C(C/C=C(\C)CC/C=C(\C)CC/C=C(\C)CC/C=C(\C)CC/C=C(\C)CC/C=C(\C)CC/C=C(\C)CC/C=C(\C)CC/C=C(\C)CCC=C(C)C)=C(C)C1=O [CoQ10, Coenzyme Q10]
- bioavailability [1]: ~10%

SMILES: O=C(O)c1cc(C(=O)O)c2c(n1)C(=O)C(=O)c1cc(C(=O)O)[nH]c1-2.[Na].[Na] [PQQ, Pyrroloquinoline quinone disodium salt]
- reduction in the relative amount of mitochondria in the liver (mice): 20 to 30%
- protection of cells from mitochondrial inhibition (cells): protect cells from mitochondrial inhibition
- citrate synthase and cytochrome c oxidase activity, Mitotracker staining, mitochondrial DNA content, cellular oxygen respiration (Hepa1-6 mouse cells): increased citrate synthase and cytochrome c oxidase activity, Mitotracker staining, mitochondrial DNA content, and cellular oxygen respiration

SMILES: Oc1ccc(/C=C/c2cc(O)cc(O)c2)cc1 [resveratrol, 3,5,4′-trihydroxy-trans-stilbene]
- bioavailability [2]: about 0.5%
